Columns and labels:
Assay type in all cases: cell-based
[1] = system: Streptococcus mutans UA159; assay: Growth inhibition assay, S. mutans (colony counts normalized to pH-matched BHI); settings: 1% (w/v) or 10% (w/v) sugar alcohol alone, pH 6.5, 7.5 or 8.5
[2] = system: Solobacterium moorei DSM 22971; assay: Growth inhibition assay, S. moorei (colony counts normalized to pH-matched Schaedler's broth)
Experimental: Solobacterium moorei DSM 22971 and Porphyromonas gingivalis ATCC 33277 were grown in Schaedler's broth (Himedia) or Brucella blood agar with hemin and vitamin K (Hardy Diagnostics) under anaerobic conditions at 37° C. Anaerobic conditions were maintained using the Anaerogen atmosphere generation system (Oxoid). Streptococcus mutans UA159 were grown in Brain Heart Infusion (BHI; Hardy Diagnostics) under 5% CO2 at 37° C. Various concentrations of xylitol (Acros Organics), erythritol (Acros Organics) and/or polyphenon 60 (Sigma) were dissolved in Schaedler's broth or BHI broth. […] The mixtures were pH adjusted using either hydrochloric acid or sodium hydroxide to a final pH of 6.5±0.1, 7.5±0.1 or 8.5±0.1. All test products were filter-sterilized after pH adjustment. […] After 48 h of incubation, various dilutions of the cells were spotted into Brucella blood agar with hem in and vitamin K, and incubated for 48 h for S. moorei, and for 72 h for P. gingivalis. Cell counts were normalized against growth in Schaedler's broth adjusted to their respective testing pH. […] The percent inhibition was measured by normalizing the results against S. moorei grown in media with the corresponding pH adjustment. […] The percent survival was measured by normalizing the results against S. moorei grown in media with the corresponding pH adjustment. […] The percent inhibition was measured by normalizing the results against S. moorei grown in media with the corresponding pH adjustment. An upper limit of 0.1 mg/mL polyphenon 60 was used in order to be able to assess the pH effects.

[3] = system: Porphyromonas gingivalis ATCC 33277; assay: Growth inhibition assay, P. gingivalis (colony counts normalized to pH-matched Schaedler's broth)
Experimental: Solobacterium moorei DSM 22971 and Porphyromonas gingivalis ATCC 33277 were grown in Schaedler's broth (Himedia) or Brucella blood agar with hemin and vitamin K (Hardy Diagnostics) under anaerobic conditions at 37° C. Anaerobic conditions were maintained using the Anaerogen atmosphere generation system (Oxoid). Streptococcus mutans UA159 were grown in Brain Heart Infusion (BHI; Hardy Diagnostics) under 5% CO2 at 37° C. Various concentrations of xylitol (Acros Organics), erythritol (Acros Organics) and/or polyphenon 60 (Sigma) were dissolved in Schaedler's broth or BHI broth. […] The mixtures were pH adjusted using either hydrochloric acid or sodium hydroxide to a final pH of 6.5±0.1, 7.5±0.1 or 8.5±0.1. All test products were filter-sterilized after pH adjustment. […] After 48 h of incubation, various dilutions of the cells were spotted into Brucella blood agar with hem in and vitamin K, and incubated for 48 h for S. moorei, and for 72 h for P. gingivalis. Cell counts were normalized against growth in Schaedler's broth adjusted to their respective testing pH. […] The percent inhibition was measured by normalizing the results against P. gingivalis grown in media with the corresponding pH adjustment. […] The percent inhibition was measured by normalizing the results against P. gingivalis grown in media with the corresponding pH adjustment.

[4] = 10% sugar alcohol alone, pH 6.5
[5] = 10% sugar alcohol alone, pH 7.5
[6] = 10% sugar alcohol alone, pH 8.5

Compound	inhibitory activity on growth of S. mutans [1]	S. moorei survival [2, 4]	S. moorei survival [2, 5]	S. moorei survival [2, 6]	inhibition of S. moorei growth ([2]; on its own at varying concentrations, any pH)	Survival of P. gingivalis ([3]; 1% sugar alcohol alone, pH 6.5)	Survival of P. gingivalis ([3]; 1% sugar alcohol alone, pH 7.5)	Survival of P. gingivalis [3, 4]	Survival of P. gingivalis [3, 5]	Survival of P. gingivalis [3, 6]	S. moorei survival ([2]; 1% sugar alcohol alone, pH 6.5)	S. moorei survival ([2]; 1% sugar alcohol alone, pH 7.5)	S. moorei survival ([2]; 1% sugar alcohol alone, pH 8.5)	Survival of P. gingivalis ([3]; 1% sugar alcohol alone, pH 8.5)
OC[C@@H](O)[C@@H](O)CO [erythritol]	inhibit growth	140.4%	156.9%	162.0%	did not inhibit	92.1%	75.4%	41.1%	19.9%	13.6%				
OC[C@@H](O)[C@H](O)[C@@H](O)CO [xylitol]	had inhibitory activity	52.6%	53.6%	26.8%		69.8%	63.2%	14.3%	8.9%	7.4%	52.0%	53.3%	17.3%	60.0%

Source: patent publication US11382850B2, “Compositions and methods for inhibiting growth of caries-, gingivitis- and halitosis-causing bacteria” (DoseBiome Inc., priority 2019, dated 2022)
